| melting point [°C] | Structure (SMILES) |
| --- | --- |
| 111 to 112 | COc1cc2c(cc1OCc1ccccc1)CCN(Cc1cccc(Oc3ccccc3)c1)C2 |
| 260 to 265 | CN1CCN(c2cc(Cl)cc3c2c(=O)n(Cc2cccc(N)c2)c(=O)n3Cc2ccccc2)CC1 |
| 93 to 94 | CCOCCCc1ccc(Oc2ccc3c(c2)C=C(C(=O)OC)CCS3(=O)=O)cc1 |
| 153 | CC(=O)NC(CC(=O)N[C@@H]1CN2C(=O)N(c3cc(Cl)nc(Cl)c3)C(=O)[C@@]2(Cc2ccc(OC(F)(F)F)cc2)C1)C(N)=O (stereo partly drawn) |
| 85 to 88 | O=C1CCCCN1S(=O)(=O)c1ccc(N2CCCCCC2)cc1 |
| 125 to 127 | Cn1c2ccccc2c2cc(C(=O)N3CCOCC3)sc21 |
| 130 to 131 | CC(=O)Oc1cc2cc[nH]c2cc1OC(C)=O |
| 224 to 226 | CC(=O)NC[C@H]1CN(c2ccc(C(=O)c3cnc4ccc(F)cn34)cc2)C(=O)O1 |
| 228 to 230 | O=C1CCC(N2Cc3c(OCc4ccc(CN5CC6CCC(C5)O6)cc4)cccc3C2=O)C(=O)N1 (stereo not drawn) |
| 247 to 249 | CCOC(=O)c1ccc(CCC2CC(n3c4ccccc4c4ccccc43)c3ccccc3N2C(=O)c2ccc(OC)c(OC)c2)cc1 (stereo not drawn) |
| 199 to 200 | COc1cccc(N2CCN(S(=O)(=O)c3ccc(/C=C/C(=O)NO)cc3)CC2)c1 |
| 162 to 164 | COc1ccc(N2CC(=O)N(CCN)C2=O)cc1OC |
| > 200 | O=C(NCCN1CCCC1)c1ccc(-c2cnc3c(c2)N(Cc2c(Cl)cccc2Cl)C(=O)CN3)cc1 |

Second part, the molecule before the results:

| Structure (SMILES) | melting point [°C] |
| --- | --- |
| NCC1Cc2cc(C(F)(F)F)cc(-c3ccc(Cl)cc3)c2O1 (stereo not drawn) | > 250 |
| CC(C)(C)c1cc(SC#N)cc(C(C)(C)C)c1O | 61.5 to 63 |
| Cc1ccccc1C(=O)C=CC(=O)O | 82 to 83 |
| CCCCCCCCCCN(O)C(=O)NCCC(=O)OC | 77 to 78 |
| ClCc1ncc(-c2ccccc2)c2ccccc12 | 101 to 102 |
| COc1cc(Cc2cnc(NCCSCc3ncccc3Br)[nH]c2=O)ccn1 | 70 to 72 |
| Cc1ccc2cccc3c2c1N(Cc1ccccc1)C3=NCCCn1ccnc1 | 107 to 109 |
| Oc1cc(Cl)c2nc(-c3ccc(O)c(F)c3)cc(Br)c2c1 | 184 to 186 |
| COc1cc2c3c(nc4ccc(Cl)cc4c3c1)-c1ccccc1N2 | 205 to 207 |
| CC=CC(=O)C1=C(C)C(=O)CCC1(C)C | 68 to 69 |
| O=C(NCC12CC3CC(CC(C3)C1)C2)c1c(Cl)ccc2nc(N3CCC(O)(C(=O)O)CC3)ccc12 | 200 to 204 |
| COC1CCC(NC(=O)C2CC3c4cccc5c4c(cn5C(C)C)CC3N(C)C2)CC1 (stereo not drawn) | > 230 |
| Cc1cnc(C)n2c1c(CCN1CCC(NC(=O)c3ccccc3)CC1)c1ccccc12 | 233 to 234 |
| O=C(NCC#CCN1CCCC1)N1c2ccccc2-c2noc3c2C1CCC3 (stereo not drawn) | 132 |
| COc1ccc(CNC(=O)c2cnc(SC)nc2NC(C)C)cc1 | 176 to 177 |
| CC(C)(C)C(=O)c1c[nH]c2ncc(C3CC3)nc12 | 266 to 268 |
| COC(=O)C1=C(C)NC(c2c(F)cc(F)cc2F)=NC1c1ccc(F)cc1Cl (stereo not drawn) | 112 to 114 |
| CC1Cc2cc(Cl)ccc2C(c2ccc([N+](=O)[O-])cc2)=NN1 (stereo not drawn) | 152 to 154 |
| COC(=O)[C@@H]1O[C@@H](c2ccccc2)N(NS(=O)(=O)c2ccc([N+](=O)[O-])cc2)[C@H]1c1ccccc1 | 118 to 120 |
| N#Cc1ccc(N2CCCN(c3ccnc4sc(C(N)=O)c(N)c34)CC2)cc1 | 151 to 153 |
| FC(F)(F)c1nc2nc(Cl)c(Cl)cc2[nH]1 | 222 to 224 |
| CC1(C)CCC(C)(C)c2cc(Br)c(O)cc21 | 90 to 94 |
| CCc1nn(C2CCCC2)c2cc(C(=O)N(C)c3c(Cl)cncc3Cl)ccc12 | 118 to 119 |
| Fc1cc(F)c2c(c1)C[C@@H](n1c(CCNCc3ccccc3)c[nH]c1=S)CO2 | 188 to 190 |
| CCCCCCCN(CCCCCSc1nc(-c2ccccc2)c(-c2ccccc2)[nH]1)C(=S)Nc1ccc(F)cc1F | 116 to 118 |
